# Data published in PubChem BioAssay AID1963985 (Molecular Pharmacology Branch, DTP, NCI, 2024).
# System: 252836-082-R-J2-PDC tumor spheroids, viability
# Experiment: Anticancer human tumor 252836-082-R-J2-PDC patient-derived head and neck squamous cell carcinoma cell line growth inhibition [PI3K]
# Details: spheroids with HUVEC and MSC; for IC50: curve of first compound; for viability, T/C: stronger effect = lower value
# Procedure, shortened: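 Spheroid viability read-out. Co-cultures contained the tumor line plus HUVEC and human MSCs. Each agent was paired with a PI3K inhibitor (inavolisib, alpelisib, duvelisib, copanlisib) across half-log dilutions starting at clinical Cmax, or at 10 microM when Cmax was unknown.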
# [1] = second compound 0.0316 µM, first compound 0.0316 µM
# [2] = second compound 0.0316 µM, first compound 0.1 µM
# [3] = second compound 0.0316 µM, first compound 0.316 µM
# [4] = second compound 0.0316 µM, first compound 1 µM
# [5] = second compound 0.0316 µM, first compound 3.16 µM
# [6] = second compound 0.0316 µM, first compound 10 µM
# [7] = second compound 0.1 µM, first compound 0.0316 µM
# [8] = second compound 0.1 µM, first compound 0.1 µM
# [9] = second compound 0.1 µM, first compound 0.316 µM
# [10] = second compound 0.1 µM, first compound 1 µM
# [11] = second compound 0.1 µM, first compound 3.16 µM
# [12] = second compound 0.1 µM, first compound 10 µM
# [13] = second compound 0.316 µM, first compound 0.0316 µM
# [14] = second compound 0.316 µM, first compound 0.1 µM
# [15] = second compound 0.316 µM, first compound 0.316 µM
# [16] = second compound 0.316 µM, first compound 1 µM
# [17] = second compound 0.316 µM, first compound 3.16 µM
# [18] = second compound 0.316 µM, first compound 10 µM
# [19] = second compound 1 µM, first compound 0.0316 µM
# [20] = second compound 1 µM, first compound 0.1 µM
# [21] = second compound 1 µM, first compound 0.316 µM
# [22] = second compound 1 µM, first compound 1 µM
# [23] = second compound 1 µM, first compound 3.16 µM
# [24] = second compound 1 µM, first compound 10 µM
# 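Note: spheroids exposed to agents for seven days before readout.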
# 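Throughout, for viability, T/C: percent of vehicle DMSO control viability so 100% = untreated growth.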
smiles,measurement,setting,value
CC1(C)CCC(Nc2ncc(C(F)(F)F)c(-c3c[nH]c4c(P(C)(C)=O)c(C#N)ccc34)n2)CN1 (centres undefined) + CC(Nc1ncnc2nc[nH]c12)c1cc2cccc(Cl)c2c(=O)n1-c1ccccc1,IC50,second compound 0.0316 µM,< 31.6 nM
same,IC50,second compound 0.1 µM,< 31.6 nM
same,IC50,second compound 0.316 µM,< 31.6 nM
same,IC50,second compound 1 µM,< 31.6 nM
same,IC50,second compound 3.16 µM,< 31.6 nM
same,IC50,second compound 10 µM,< 31.6 nM
same,"viability, T/C",[1],31.1%
same,"viability, T/C",[2],26.6%
same,"viability, T/C",[3],28.6%
same,"viability, T/C",[4],32.2%
same,"viability, T/C",[5],34.7%
same,"viability, T/C",[6],4.13%
same,"viability, T/C",[7],34.2%
same,"viability, T/C",[8],27.4%
same,"viability, T/C",[9],31.6%
same,"viability, T/C",[10],26.4%
same,"viability, T/C",[11],36.9%
same,"viability, T/C",[12],5.65%
same,"viability, T/C",[13],32.4%
same,"viability, T/C",[14],32.9%
same,"viability, T/C",[15],27.7%
same,"viability, T/C",[16],30.1%
same,"viability, T/C",[17],33.8%
same,"viability, T/C",[18],4.38%
same,"viability, T/C",[19],27.9%
same,"viability, T/C",[20],31.8%
same,"viability, T/C",[21],32.4%
same,"viability, T/C",[22],28.7%
same,"viability, T/C",[23],33.4%
same,"viability, T/C",[24],4.12%
same,"viability, T/C","second compound 3.16 µM, first compound 0.0316 µM",26.3%
same,"viability, T/C","second compound 3.16 µM, first compound 0.1 µM",26.2%
same,"viability, T/C","second compound 3.16 µM, first compound 0.316 µM",28%
same,"viability, T/C","second compound 3.16 µM, first compound 1 µM",31.9%
same,"viability, T/C","second compound 3.16 µM, first compound 3.16 µM",25.9%
same,"viability, T/C","second compound 3.16 µM, first compound 10 µM",3.79%
same,"viability, T/C","second compound 10 µM, first compound 0.0316 µM",27.2%
same,"viability, T/C","second compound 10 µM, first compound 0.1 µM",21.5%
same,"viability, T/C","second compound 10 µM, first compound 0.316 µM",26%
same,"viability, T/C","second compound 10 µM, first compound 1 µM",23%
same,"viability, T/C","second compound 10 µM, first compound 3.16 µM",22.6%
same,"viability, T/C","second compound 10 µM, first compound 10 µM",1.83%
Cn1nccc1Nc1nccc(-c2ccn(C(CO)c3ccc(Cl)c(F)c3)c(=O)c2)n1 (centres undefined) + CC(Nc1ccc2c(c1)OCCn1cc(N3C(=O)OCC3C(F)F)nc1-2)C(N)=O,IC50,second compound 0.00316 µM,> 10000 nM
same,IC50,second compound 0.01 µM,> 10000 nM
same,IC50,second compound 0.0316 µM,> 10000 nM
same,IC50,second compound 0.1 µM,5840 nM
same,IC50,second compound 0.316 µM,1070 nM
same,IC50,second compound 1 µM,< 31.6 nM
same,"viability, T/C","second compound 0.00316 µM, first compound 0.0316 µM",80.8%
same,"viability, T/C","second compound 0.00316 µM, first compound 0.1 µM",90%
same,"viability, T/C","second compound 0.00316 µM, first compound 0.316 µM",92.5%
same,"viability, T/C","second compound 0.00316 µM, first compound 1 µM",85.4%
same,"viability, T/C","second compound 0.00316 µM, first compound 3.16 µM",72.5%
same,"viability, T/C","second compound 0.00316 µM, first compound 10 µM",61.9%
same,"viability, T/C","second compound 0.01 µM, first compound 0.0316 µM",85.5%
same,"viability, T/C","second compound 0.01 µM, first compound 0.1 µM",78.7%
same,"viability, T/C","second compound 0.01 µM, first compound 0.316 µM",81%
same,"viability, T/C","second compound 0.01 µM, first compound 1 µM",89.7%
same,"viability, T/C","second compound 0.01 µM, first compound 3.16 µM",82.5%
same,"viability, T/C","second compound 0.01 µM, first compound 10 µM",58.1%
same,"viability, T/C",[1],69.4%
same,"viability, T/C",[2],74.2%
same,"viability, T/C",[3],69.8%
same,"viability, T/C",[4],75.8%
same,"viability, T/C",[5],83.8%
same,"viability, T/C",[6],44.6%
same,"viability, T/C",[7],70.4%
same,"viability, T/C",[8],58%
same,"viability, T/C",[9],64.1%
same,"viability, T/C",[10],64.6%
same,"viability, T/C",[11],60.9%
same,"viability, T/C",[12],40.4%
same,"viability, T/C",[13],49.5%
same,"viability, T/C",[14],50.3%
same,"viability, T/C",[15],55.5%
same,"viability, T/C",[16],50.1%
same,"viability, T/C",[17],40.7%
same,"viability, T/C",[18],28.6%
same,"viability, T/C",[19],39.1%
same,"viability, T/C",[20],43%
same,"viability, T/C",[21],38.7%
same,"viability, T/C",[22],38.6%
same,"viability, T/C",[23],31.9%
same,"viability, T/C",[24],22.6%
